Organism: Rattus norvegicus
Assay: DrugMatrix - Regimen: Daily Repeat
Assay type: toxicity, organism-based, Sprague-Dawley
Parameters: regimen Daily Repeat, gender Male, age 6-8 weeks
Settings: in vivo, po, route oral GAVAGE, vehicle 100 % WATER; for ABSOLUTE BASOPHIL / ABSOLUTE EOSINOPHIL / ABSOLUTE LYMPHOCYTE / ABSOLUTE MONOCYTE / ABSOLUTE SEGMENTED NEUTROPHIL / BASOPHIL / EOSINOPHIL / ERYTHROCYTE COUNT / HEMATOCRIT / HEMOGLOBIN / LEUKOCYTE COUNT / LYMPHOCYTE / MEAN CORPUSCULAR HEMOGLOBIN / MEAN CORPUSCULAR HEMOGLOBIN CONCENTRATION / MEAN CORPUSCULAR VOLUME / MONOCYTE / NEUTROPHIL / NUCLEATED RED BLOOD CELLS / PLATELET COUNT: tissue Blood; for ALANINE AMINOTRANSFERASE / ALBUMIN / ALKALINE PHOSPHATASE / ASPARTATE AMINOTRANSFERASE / BLOOD UREA NITROGEN / CARBON DIOXIDE / CHLORIDE / CHOLESTEROL / CREATINE PHOSPHOKINASE / CREATININE / GLUCOSE / LACTATE DEHYDROGENASE / LIPASE / PHOSPHORUS / POTASSIUM / SODIUM / TOTAL BILIRUBIN / TOTAL PROTEIN / URIC ACID: tissue Plasma
[1] = 11 mg/kg, 120 h, dose level Low, time 5 day
[2] = 1100 mg/kg, 72 h, dose level High, time 3 day
[3] = 1100 mg/kg, 120 h, dose level High, time 5 day

Compound: CNS(=O)(=O)Cc1ccc2[nH]cc(CCN(C)C)c2c1
- ABSOLUTE BASOPHIL [1]: 0 CELLS/uL
- ABSOLUTE EOSINOPHIL [1]: 33.33 CELLS/uL
- ABSOLUTE LYMPHOCYTE [1]: 13548.33 CELLS/uL
- ABSOLUTE MONOCYTE [1]: 177 CELLS/uL
- ABSOLUTE SEGMENTED NEUTROPHIL [1]: 608 CELLS/uL
- BASOPHIL [1]: 0%
- EOSINOPHIL [1]: 0.33%
- ERYTHROCYTE COUNT [1]: 5.94 x10E6/uL
- HEMATOCRIT [1]: 38.1%
- HEMOGLOBIN [1]: 14.67 G/DL
- LEUKOCYTE COUNT [1]: 14.37 x10E3/uL
- LYMPHOCYTE [1]: 94%
- MEAN CORPUSCULAR HEMOGLOBIN [1]: 24.67 pg
- MEAN CORPUSCULAR HEMOGLOBIN CONCENTRATION [1]: 38.53 G/DL
- MEAN CORPUSCULAR VOLUME [1]: 64.03 fL
- MONOCYTE [1]: 1.33%
- NEUTROPHIL [1]: 4.33%
- NUCLEATED RED BLOOD CELLS [1]: 0 /100WBC
- PLATELET COUNT [1]: 1140 x10E3/uL
- ALANINE AMINOTRANSFERASE [1]: 51 u/L
- ALBUMIN [1]: 4.23 G/DL
- ALKALINE PHOSPHATASE [1]: 398.33 u/L
- ASPARTATE AMINOTRANSFERASE [1]: 85.33 u/L
- BLOOD UREA NITROGEN [1]: 15.67 mg/dL
- CARBON DIOXIDE [1]: 31.67 mmol/L
- CHLORIDE [1]: 101.67 MEQ/L
- CHOLESTEROL [1]: 66 mg/dL
- CREATINE PHOSPHOKINASE [1]: 235 u/L
- CREATININE [1]: 0.17 mg/dL
- GLUCOSE [1]: 139.67 mg/dL
- LACTATE DEHYDROGENASE [1]: 145 u/L
- LIPASE [1]: 10.33 u/L
- PHOSPHORUS [1]: 11.03 mg/dL
- POTASSIUM [1]: 6.19 MEQ/L
- SODIUM [1]: 146.47 MEQ/L
- TOTAL BILIRUBIN [1]: 0.17 mg/dL
- TOTAL PROTEIN [1]: 6.37 G/DL
- URIC ACID [1]: 0.83 mg/dL
- ABSOLUTE BASOPHIL [2]: 0 CELLS/uL
- ABSOLUTE EOSINOPHIL [2]: 0 CELLS/uL
- ABSOLUTE LYMPHOCYTE [2]: 8603 CELLS/uL
- ABSOLUTE MONOCYTE [2]: 74.33 CELLS/uL
- ABSOLUTE SEGMENTED NEUTROPHIL [2]: 922.67 CELLS/uL
- BASOPHIL [2]: 0%
- EOSINOPHIL [2]: 0%
- ERYTHROCYTE COUNT [2]: 5.83 x10E6/uL
- HEMATOCRIT [2]: 35.8%
- HEMOGLOBIN [2]: 13.87 G/DL
- LEUKOCYTE COUNT [2]: 9.6 x10E3/uL
- LYMPHOCYTE [2]: 89.67%
- MEAN CORPUSCULAR HEMOGLOBIN [2]: 23.8 pg
- MEAN CORPUSCULAR HEMOGLOBIN CONCENTRATION [2]: 38.73 G/DL
- MEAN CORPUSCULAR VOLUME [2]: 61.43 fL
- MONOCYTE [2]: 0.67%
- NEUTROPHIL [2]: 9.67%
- NUCLEATED RED BLOOD CELLS [2]: 0 /100WBC
- PLATELET COUNT [2]: 1087.33 x10E3/uL
- ALANINE AMINOTRANSFERASE [2]: 50.33 u/L
- ALBUMIN [2]: 4.07 G/DL
- ALKALINE PHOSPHATASE [2]: 367.67 u/L
- ASPARTATE AMINOTRANSFERASE [2]: 86 u/L
- BLOOD UREA NITROGEN [2]: 12.67 mg/dL
- CARBON DIOXIDE [2]: 30 mmol/L
- CHLORIDE [2]: 101.67 MEQ/L
- CHOLESTEROL [2]: 70.33 mg/dL
- CREATINE PHOSPHOKINASE [2]: 362.67 u/L
- CREATININE [2]: 0.2 mg/dL
- GLUCOSE [2]: 136.67 mg/dL
- LACTATE DEHYDROGENASE [2]: 189.67 u/L
- LIPASE [2]: 10.33 u/L
- PHOSPHORUS [2]: 10.73 mg/dL
- POTASSIUM [2]: 5.86 MEQ/L
- SODIUM [2]: 145.13 MEQ/L
- TOTAL BILIRUBIN [2]: 0.13 mg/dL
- TOTAL PROTEIN [2]: 6.13 G/DL
- URIC ACID [2]: 0.7 mg/dL
- ABSOLUTE BASOPHIL [3]: 0 CELLS/uL
- ABSOLUTE EOSINOPHIL [3]: 40.67 CELLS/uL
- ABSOLUTE LYMPHOCYTE [3]: 8480 CELLS/uL
- ABSOLUTE MONOCYTE [3]: 117.33 CELLS/uL
- ABSOLUTE SEGMENTED NEUTROPHIL [3]: 862 CELLS/uL
- BASOPHIL [3]: 0%
- EOSINOPHIL [3]: 0.33%
- ERYTHROCYTE COUNT [3]: 5.92 x10E6/uL
- HEMATOCRIT [3]: 37.33%
- HEMOGLOBIN [3]: 14.3 G/DL
- LEUKOCYTE COUNT [3]: 9.5 x10E3/uL
- LYMPHOCYTE [3]: 89.67%
- MEAN CORPUSCULAR HEMOGLOBIN [3]: 24.2 pg
- MEAN CORPUSCULAR HEMOGLOBIN CONCENTRATION [3]: 38.27 G/DL
- MEAN CORPUSCULAR VOLUME [3]: 63.17 fL
- MONOCYTE [3]: 1%
- NEUTROPHIL [3]: 9%
- NUCLEATED RED BLOOD CELLS [3]: 0 /100WBC
- PLATELET COUNT [3]: 1190.33 x10E3/uL
- ALANINE AMINOTRANSFERASE [3]: 47.67 u/L
- ALBUMIN [3]: 4.07 G/DL
- ALKALINE PHOSPHATASE [3]: 329 u/L
- ASPARTATE AMINOTRANSFERASE [3]: 87.67 u/L
- BLOOD UREA NITROGEN [3]: 15.67 mg/dL
- CARBON DIOXIDE [3]: 31 mmol/L
- CHLORIDE [3]: 100 MEQ/L
- CHOLESTEROL [3]: 65.67 mg/dL
- CREATINE PHOSPHOKINASE [3]: 337 u/L
- CREATININE [3]: 0.17 mg/dL
- GLUCOSE [3]: 135.33 mg/dL
- LACTATE DEHYDROGENASE [3]: 119.67 u/L
- LIPASE [3]: 10.33 u/L
- PHOSPHORUS [3]: 9.67 mg/dL
- POTASSIUM [3]: 6.24 MEQ/L
- SODIUM [3]: 145.07 MEQ/L
- TOTAL BILIRUBIN [3]: 0.2 mg/dL
- TOTAL PROTEIN [3]: 6.2 G/DL
- URIC ACID [3]: 0.83 mg/dL

Reference: ChEMBL document CHEMBL3885881, “DrugMatrix”
